From patent publication US20260274856A1, “COVALENT CEREBLON LIGANDS” (C4 THERAPEUTICS, INC., priority 2023, published 2026) come the findings set out here.

Molecules are shown by their SMILES.

The target in the assay is GSPT1 (Homo sapiens, UniProt P15170+Q96SW2). Put plainly: GSPT1 HiBiT Degradation Assay in 293T.114 cells. To be noted: for HIBIT-Degradation 293T.114 GSPT1 24 hours IP nM / DC50: 293T.114 cells, 24 hours; for HIBIT-Degradation 293T.114 GSPT1 24 hours IP nM: inflection point of the dose-response curve; for DC50: read-out: HIBIT-Degradation 293T.114 GSPT1 24 hours DC50 nM; for Emax: read-out: HIBIT-Degradation 293T.114 GSPT1 24 hours Emax. For orientation: HiBiT is a short tag that completes a luciferase, so light tracks the accessible tagged protein.
Sequence of GSPT1 (Q96SW2 whole entry): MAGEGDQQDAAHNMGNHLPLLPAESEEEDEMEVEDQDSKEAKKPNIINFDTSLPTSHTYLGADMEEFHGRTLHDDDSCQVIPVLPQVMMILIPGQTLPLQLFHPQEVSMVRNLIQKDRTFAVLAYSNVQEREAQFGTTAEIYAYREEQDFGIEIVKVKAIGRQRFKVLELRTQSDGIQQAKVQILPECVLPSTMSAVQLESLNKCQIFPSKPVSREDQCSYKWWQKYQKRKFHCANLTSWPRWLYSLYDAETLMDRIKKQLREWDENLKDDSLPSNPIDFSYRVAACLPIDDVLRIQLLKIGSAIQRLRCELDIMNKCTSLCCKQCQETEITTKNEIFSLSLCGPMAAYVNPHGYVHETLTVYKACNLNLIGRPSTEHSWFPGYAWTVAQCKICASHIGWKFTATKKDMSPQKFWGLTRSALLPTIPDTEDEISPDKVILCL
Sequence of GSPT1 (Q16531 2-1140, further chain): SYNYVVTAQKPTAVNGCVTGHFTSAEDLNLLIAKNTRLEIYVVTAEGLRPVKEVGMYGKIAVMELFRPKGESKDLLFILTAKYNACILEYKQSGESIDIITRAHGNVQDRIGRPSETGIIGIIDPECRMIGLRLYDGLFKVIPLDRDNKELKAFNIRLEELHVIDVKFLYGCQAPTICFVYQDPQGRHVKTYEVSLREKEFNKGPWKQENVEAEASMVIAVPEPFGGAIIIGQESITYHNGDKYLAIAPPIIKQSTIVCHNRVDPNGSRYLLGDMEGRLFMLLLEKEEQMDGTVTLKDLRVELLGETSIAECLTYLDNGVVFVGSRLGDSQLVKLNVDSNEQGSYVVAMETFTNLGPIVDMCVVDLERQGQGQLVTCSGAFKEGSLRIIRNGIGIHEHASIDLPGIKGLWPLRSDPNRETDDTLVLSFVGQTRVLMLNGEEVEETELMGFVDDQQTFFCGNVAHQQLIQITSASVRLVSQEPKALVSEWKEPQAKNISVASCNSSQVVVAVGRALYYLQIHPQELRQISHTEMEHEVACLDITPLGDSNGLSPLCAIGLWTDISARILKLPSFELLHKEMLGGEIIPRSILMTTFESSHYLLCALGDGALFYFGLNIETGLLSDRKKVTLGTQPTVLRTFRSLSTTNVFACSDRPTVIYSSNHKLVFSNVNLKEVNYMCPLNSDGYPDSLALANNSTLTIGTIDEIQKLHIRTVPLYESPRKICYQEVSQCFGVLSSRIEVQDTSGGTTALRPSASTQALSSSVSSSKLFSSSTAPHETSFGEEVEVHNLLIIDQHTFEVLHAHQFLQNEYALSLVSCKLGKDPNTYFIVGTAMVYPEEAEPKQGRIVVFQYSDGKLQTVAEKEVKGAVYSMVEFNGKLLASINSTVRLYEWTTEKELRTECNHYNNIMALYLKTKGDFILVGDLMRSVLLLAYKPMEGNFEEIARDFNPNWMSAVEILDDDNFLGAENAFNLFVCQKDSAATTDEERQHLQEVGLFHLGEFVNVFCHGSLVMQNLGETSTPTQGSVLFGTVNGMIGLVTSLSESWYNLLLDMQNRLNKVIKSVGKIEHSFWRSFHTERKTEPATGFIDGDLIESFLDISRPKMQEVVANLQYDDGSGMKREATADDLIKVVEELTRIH
Sequence of GSPT1 (P15170 whole entry): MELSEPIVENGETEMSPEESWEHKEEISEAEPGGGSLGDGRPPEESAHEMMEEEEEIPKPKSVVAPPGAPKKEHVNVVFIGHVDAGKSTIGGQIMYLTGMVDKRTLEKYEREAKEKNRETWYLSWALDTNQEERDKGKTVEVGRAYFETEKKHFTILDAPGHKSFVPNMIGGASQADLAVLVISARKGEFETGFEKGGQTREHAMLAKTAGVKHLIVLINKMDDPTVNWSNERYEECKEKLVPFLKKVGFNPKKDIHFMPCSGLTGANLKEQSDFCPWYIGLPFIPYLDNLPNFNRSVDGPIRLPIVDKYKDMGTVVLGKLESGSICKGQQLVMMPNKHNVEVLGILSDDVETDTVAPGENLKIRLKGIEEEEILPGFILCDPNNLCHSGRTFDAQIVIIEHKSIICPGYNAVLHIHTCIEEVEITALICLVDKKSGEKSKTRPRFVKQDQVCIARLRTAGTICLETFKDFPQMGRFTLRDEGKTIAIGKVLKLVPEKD

Experimental: Upon cell lysis and addition of the complementing LgBiT polypeptide and its substrate, the HiBiT polypeptide on GSPT1 allows reconstitution of an enzyme that activates its substrate to produce a luminescent signal that is directly proportional to the amount of HiBiT-tagged GSPT1. […] Cell culture flasks and 384-well microplates were acquired from VWR (Radnor, PA, USA).
Cellular GSPT1 protein level was determined based on quantification of luminescent signal using the Nano-Glo® HiBiT Lytic Assay kit (Promega). Following the 24 hr treatment time, Nano-Glo® HiBiT Lytic Assay reagents were added to the cells per the manufacturer's instructions by adding 30 µl of reagent per well, and the luminescence signal was acquired on the PHERAstar plate reader (BMG Labtech, Ortenberg, Germany). Cells treated with DMS0 only (no test compound treatment) were used as the negative control (N). Media only (no cells added) withNano-Glo reagent additionwasused as the background orpositive control (P). The percent response of compound treated samples were calculated by subtracting out the 5 background signal (P) and normalizing to the DMS0 control (N) as follows. 0% Response=100 x (Treated Signal - Average (P))/(Average (N) - Average (P)).
Data were analyzed with a 4-parameter logistic fit to generate sigmoidal dose-response curves. DC50 values were computed as the concentrations where the fitted curves cross the 5000 response level.

As a reminder, the DC50 is the concentration at which degradation of the target reaches its halfway point. The term Emax denotes the greatest response seen or fitted, relative to the assay's reference. With `CCN(C)S(=O)(=O)Nc1ccc(F)c(Oc2ccc3ncn([C@@H]4COC5(CCN(C(=O)CN6CCC(c7ccc(C8CCC(=O)NC8=O)cc7OS(=O)(=O)F)CC6)CC5)C4)c(=O)c3c2)c1C#N` (stereo partly drawn) [drawing 1231], the “HIBIT-Degradation 293T.114 GSPT1 24 hours IP nM” value is “** (<10 μM and >1 μM is **)”; the DC50 was above 10000 nM; the Emax was below 60%.

With `CCN(C)S(=O)(=O)Nc1ccc(F)c(Oc2ccc3ncn([C@H]4COC5(CCN(C(=O)CN6CCN(c7ccc(C8CCC(=O)NC8=O)cc7OS(=O)(=O)F)CC6)CC5)C4)c(=O)c3c2)c1C#N` (stereo partly drawn) [drawing 1232], the “HIBIT-Degradation 293T.114 GSPT1 24 hours IP nM” value was “** (<10 μM and >1 μM is **)”; the DC50 was above 10000 nM; the Emax lay in the range of 60 to 95%.
